Patent publication US12590072B2, “Thyromimetics” (Autobahn Therapeutics, Inc., priority 2020, dated 2026)

Experiments:
[1] = molecular target: T1, TRα (TR-receptor hybrid with yeast Gal4 DBD) (Homo sapiens, UniProt P10827); assay: Thyroid-hormone reporter-gene assay, TRα; assay type: cell-based; conditions: HEK293-derived reporter cells, firefly luciferase, 24 hr incubation
T1 construct: expressed in transfected cells; host or cells: HEK293
T1 sequence (P10827 1-410 isoform P10827-2): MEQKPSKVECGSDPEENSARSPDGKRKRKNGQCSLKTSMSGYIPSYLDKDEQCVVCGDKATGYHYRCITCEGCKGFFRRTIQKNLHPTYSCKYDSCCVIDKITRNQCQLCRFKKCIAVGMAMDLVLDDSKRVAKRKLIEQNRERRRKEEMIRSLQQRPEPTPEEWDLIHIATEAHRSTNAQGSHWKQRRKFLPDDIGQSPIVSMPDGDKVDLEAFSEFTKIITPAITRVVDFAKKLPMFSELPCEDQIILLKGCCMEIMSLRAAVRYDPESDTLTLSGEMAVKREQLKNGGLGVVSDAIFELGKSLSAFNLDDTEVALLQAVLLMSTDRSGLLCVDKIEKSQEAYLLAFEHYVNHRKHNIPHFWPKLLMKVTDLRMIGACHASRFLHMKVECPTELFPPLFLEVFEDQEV
Method: (§1) Compounds were tested for thyroid-hormone receptor activity using TR reporter-gene assays. Reporter cells used in the assays express a TR-receptor hybrid (either TRα or TRβ) in which the native N-terminal DNA binding domain (DBD) has been replaced with that of the yeast Gal4 DBD. The reporter gene, firefly luciferase, is functionally linked to the Gal4 upstream activation sequence (UAS). Both cell lines were derived from human embryonic kidney (HEK293). • Step 1: A suspension of reporter cells was prepared in cell recovery medium containing 10% charcoal-stripped FBS, and dispensed into assay plates. […] These intermediate stocks were subsequently diluted directly into compound screening medium containing 10% charcoal-stripped FBS to generate “2×-concentration” treatment media (containing 0.2, 0.4 or 0.8% DMSO). • Step 3: At the end of the pre-incubation period, culture media were discarded from the assay plates, and all wells received 100 μl of compound screening medium. 100 μl of each of the previously prepared “2×-concentration” treatment media were dispensed into duplicate assay wells, thereby achieving the desired final treatment concentrations. The final concentration of DMSO in all assay wells was 0.1, 0.2 or 0.4%. Assay plates were incubated for 24 hr in a cell culture incubator (37° C./5% CO2/85% humidity). • Step 4: At the 24 h assay endpoint, treatment media were discarded and 100 μl/well of luciferase detection reagent was added. Relative luminometer units (RLUs) were quantified from each assay well.

[2] = molecular target: T2, TRβ (TR-receptor hybrid with yeast Gal4 DBD) (Homo sapiens, UniProt P10828); assay: Thyroid-hormone reporter-gene assay, TRβ; assay type: cell-based; conditions: for EC50: HEK293-derived reporter cells, firefly luciferase, 24 hr incubation; for T3-SI, selectivity index EC50 (TRα)/EC50 (TRβ): calculated from the reporter-gene EC50 values
T2 construct: expressed in transfected cells; host or cells: HEK293
T2 sequence (P10828 217-461 limits assumed): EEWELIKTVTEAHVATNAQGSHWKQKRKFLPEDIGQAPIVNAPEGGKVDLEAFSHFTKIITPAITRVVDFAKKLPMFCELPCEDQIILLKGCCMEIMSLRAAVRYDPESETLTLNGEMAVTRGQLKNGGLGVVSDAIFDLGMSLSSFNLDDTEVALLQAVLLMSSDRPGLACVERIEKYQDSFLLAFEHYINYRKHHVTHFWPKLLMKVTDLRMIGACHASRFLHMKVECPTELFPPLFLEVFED
Method: as §1

| SMILES | EC50 [1] [nM] | EC50 [2] [nM] | T3-SI, selectivity index EC50 (TRα)/EC50 (TRβ) [2] |
| --- | --- | --- | --- |
| CC(C)c1cc(Cc2c(Cl)cc(-n3nc(C#N)c(O)nc3=O)cc2Cl)ccc1O [Compound 1, 2-(3,5-dichloro-4-(4-hydroxy-3-isopropylbenzyl)phenyl)-5-hydroxy-3-oxo-2,3-dihydro-1,2,4-triazine-6-carbonitrile] | 100 to 1000 | 10 to 100 | +++ (T3-SI>30×) |
| CC(C)c1c(O)ccc(Cc2c(Cl)cc(-n3nc(C#N)c(O)nc3=O)cc2Cl)c1F [Compound 2, 2-(3,5-dichloro-4-(2-fluoro-4-hydroxy-3-isopropylbenzyl)phenyl)-5-hydroxy-3-oxo-2,3-dihydro-1,2,4-triazine-6-carbonitrile] | 10 to 100 | 10 to 100 | ++ (3×<T3-SI≤30×) |
| N#Cc1nn(-c2cc(Cl)c(Cc3ccc(O)c(-c4cccc(OC(F)F)c4)c3)c(Cl)c2)c(=O)nc1O [Compound 3, 2-(3,5-dichloro-4-((3′-(difluoromethoxy)-6-hydroxy-[1,1′-biphenyl]-3-yl)methyl)phenyl)-5-hydroxy-3-oxo-2,3-dihydro-1,2,4-triazine-6-carbonitrile] | > 1000 | 100 to 1000 | +++ (T3-SI>30×) |
| N#Cc1nn(-c2cc(Cl)c(Cc3ccc(O)c(Cc4ccc(F)cc4)c3)c(Cl)c2)c(=O)nc1O [Compound 4, 2-(3,5-dichloro-4-(3-(4-fluorobenzyl)-4-hydroxybenzyl)phenyl)-5-hydroxy-3-oxo-2,3-dihydro-1,2,4-triazine-6-carbonitrile] | > 1000 | 100 to 1000 | ++ (3×<T3-SI≤30×) |
| CC(C)c1cc(Cc2c(Cl)cc(-n3nc(C#N)c(O)nc3=O)cc2C(C)C)ccc1O [Compound 5, 2-(3-chloro-4-(4-hydroxy-3-isopropylbenzyl)-5-isopropylphenyl)-5-hydroxy-3-oxo-2,3-dihydro-1,2,4-triazine-6-carbonitrile] | 10 to 100 | < 10 | ++ (3×<T3-SI≤30×) |
| CC(C)c1cc(Cc2c(Cl)cc(-n3nc(C#N)c(O)nc3=O)c(F)c2Cl)ccc1O [Compound 6, 2-(3,5-dichloro-2-fluoro-4-(4-hydroxy-3-isopropylbenzyl)phenyl)-5-hydroxy-3-oxo-2,3-dihydro-1,2,4-triazine-6-carbonitrile] | 100 to 1000 | 100 to 1000 | ++ (3×<T3-SI≤30×) |
| CC(C)c1c(O)ccc(Cc2c(Cl)cc(-c3cc(F)c(O)c(F)c3)cc2Cl)c1F [Compound 7, 3′,5′-dichloro-3,5-difluoro-4′-(2-fluoro-4-hydroxy-3-isopropylbenzyl)-[1,1′-biphenyl]-4-ol] | > 1000 | 100 to 1000 | ++ (3×<T3-SI≤30×) |
| CC(C)c1c(O)ccc(Cc2c(Cl)cc(-c3ccc(F)c(O)c3F)cc2Cl)c1F [Compound 8, 3′,5′-dichloro-2,4-difluoro-4′-(2-fluoro-4-hydroxy-3-isopropylbenzyl)-[1,1′-biphenyl]-3-ol] | > 1000 | > 1000 | – |
| CC(C)c1cc(Cc2c(Cl)cc(-c3cc(O)no3)cc2Cl)ccc1O [Compound 9, 5-(3,5-dichloro-4-(4-hydroxy-3-isopropylbenzyl)phenyl)isoxazol-3-ol] | 100 to 1000 | 10 to 100 | ++ (3×<T3-SI≤30×) |
| O=c1nc(O)cnn1-c1cc(Cl)c(Cc2ccc(O)c(-c3cccc(OC(F)F)c3)c2)c(Cl)c1 [Compound 10, 2-(3,5-dichloro-4-((3′-(difluoromethoxy)-6-hydroxy-[1,1′-biphenyl]-3-yl)methyl)phenyl)-5-hydroxy-1,2,4-triazin-3(2H)-one] | < 10 | < 10 | ++ (3×<T3-SI≤30×) |
